# Columns and labels:
# B. subtilis pol IIIC = biological target: T1, B. subtilis pol IIIC (Bacillus subtilis, UniProt P13267); assay: DNA polymerase assay, B. subtilis pol IIIC; format: biochemical; conditions: for Percent Enzymatic Inhibition B. subtilis pol IIIC / inhibition at 80 µg/mL: 80 μg/mL (190-260 μM) final concentration, all four dNTPs; for inhibition at 80 µg/mL: read-out: Percent Enzymatic Inhibition B. subtilis pol IIIC
# T1 construct: made in house
# Method: Recombinant, purified pol IIIC and pol IIIE from Bacillus subtilis were obtained using known methods (Hammond et al., Gene 98: 29-36 (1991), regarding pol IIIC; Barnes et al., J. Bacteriol. 184, 3834-3838 (2002), regarding pol IIIE). Recombinant, purified pol IIIE from Escherichia coli was obtained from a commercial source (Enzyco, Denver, Colo.). The enzyme assays were performed in 96-well plate format using the same assay mix for all three enzymes. […] Dilutions of compounds were added to the plate in 1% DMSO (1 μL/well). Assays were initiated by the addition of 0.025 to 0.06 units of enzyme (1 unit is the amount required to incorporate 250 pmoles of [^3H] dTMP in a standard assay), incubated for 10 min at 30° C. and terminated by the addition of 200 μL of cold 10% trichloroacetic acid, 10 mM sodium pyrophosphate. Precipitated labeled DNA was collected on glass fiber filter plates that had been pre-wet with ice cold 1 M HCl, 100 mM sodium pyrophosphate. The plates were washed with the HCl solution followed by ice cold 90% ethanol and then dried and counted in a liquid scintillation counter. […] In addition, percent inhibition values are calculated as the percent reduction in the activity of a DMSO (diluent) control.
# B. subtilis pol IIIE [1] = biological target: T2, B. subtilis pol IIIE (Bacillus subtilis, UniProt O34623); assay: DNA polymerase assay, B. subtilis pol IIIE; format: biochemical; conditions: for inhibition at 80 µg/mL: read-out: Percent Enzymatic Inhibition B. subtilis pol IIIE; for IC50: B. subtilis Pol IIIE IC50, 4 dNTPs; for IC50 / B. subtilis Pol IIIE IC50, 4 dNTPs: in the presence of all four dNTP substrates
# T2 construct: made in house
# Method: (§1) Recombinant, purified pol IIIC and pol IIIE from Bacillus subtilis were obtained using known methods (Hammond et al., Gene 98: 29-36 (1991), regarding pol IIIC; Barnes et al., J. Bacteriol. 184, 3834-3838 (2002), regarding pol IIIE). Recombinant, purified pol IIIE from Escherichia coli was obtained from a commercial source (Enzyco, Denver, Colo.). The enzyme assays were performed in 96-well plate format using the same assay mix for all three enzymes. Each 25 μL assay contained 30 mM Tris, pH 7.5, 10 mM magnesium acetate, 4 mM dithiothreitol, 20% glycerol, with 10 μM dATP, dCTP, dGTP and dTTP (3H-labelled at 1.44 Ci/mmole) and 0.4 mg/mL activated calf thymus DNA as substrates. Dilutions of compounds were added to the plate in 1% DMSO (1 μL/well). Assays were initiated by the addition of 0.025 to 0.06 units of enzyme (1 unit is the amount required to incorporate 250 pmoles of [^3H] dTMP in a standard assay), incubated for 10 min at 30° C. and terminated by the addition of 200 μL of cold 10% trichloroacetic acid, 10 mM sodium pyrophosphate. Precipitated labeled DNA was collected on glass fiber filter plates that had been pre-wet with ice cold 1 M HCl, 100 mM sodium pyrophosphate. The plates were washed with the HCl solution followed by ice cold 90% ethanol and then dried and counted in a liquid scintillation counter. The calculated IC50 is the concentration needed to inhibit 50% of the DNA polymerase activity in the presence of all four dNTP substrates. In addition, percent inhibition values are calculated as the percent reduction in the activity of a DMSO (diluent) control.
# E. coli pol IIIE = biological target: T3, E. coli pol IIIE (Escherichia coli, UniProt P10443); assay: DNA polymerase assay, E. coli pol IIIE; format: biochemical; conditions: 80 μg/mL (190-260 μM) final concentration, all four dNTPs; for inhibition at 80 µg/mL: read-out: Percent Enzymatic Inhibition E. coli pol IIIE
# T3 construct: purchased Enzyco, Denver, Colo
# Method: as §1
# [2] = test system: Bacillus subtilis strain BD54; assay: Inhibition of bacterial growth (MIC), Bs; format: cell-based; conditions: 16 to 18 hours, 37° C.; for MIC: read-out: Minimum Inhibitory Concentration for Bacterial Growth, Bs
# Method: (§2) Each compound was assayed against a panel of a strain of Bacillus subtilis, of strains of antibiotic-resistant and sensitive Enterococcus and Staphylococcus species, and of a strain of the Gram-negative bacterium Escherichia coli. Compounds were dissolved in DMSO at 100× the desired highest concentration and added to one well of a 96-well microassay plate. Two-fold serial drug dilutions were made across the plate in DMSO to yield 11 concentrations (usually 80-0.078 μg/mL) plus an untreated control. Drugs were then transferred to fresh plates using 1.5 μL per well. Log phase cultures were diluted to yield a concentration of 1×10^5 colony forming units/mL in either LB or BHI medium and transferred to the plates containing drug for a final volume of 150 μL. Each well, including the DMSO controls, contained a final concentration of 1% DMSO. Plates were incubated with shaking at 37° C. for 16 to 18 hours. Cell growth was determined by measuring optical density (570 nm, 1 cm path length) in a microplate reader. MIC (minimum inhibitory concentration) is equivalent to the lowest concentration at which growth is not observed. The bacterial strains and MIC determinations have been well characterized and are described elsewhere (Tarantino et al., Antimicrob. Agents Chemother., 43: 1982-1987 (1999); Daly et al., Antimicrob. Agents Chemother., 44: 2217-2221 (2000)).
# [3] = test system: Staphylococcus aureus strain IP 8; assay: Inhibition of bacterial growth (MIC), Sa; format: cell-based; conditions: 37° C.; for MIC: IP8, 16 to 18 hours, read-out: Minimum Inhibitory Concentration for Bacterial Growth, Sa
# Method: as §2
# S. aureus Smith strain = assay: Inhibition of bacterial growth (MIC), Sm; format: cell-based, Staphylococcus aureus; conditions: 16 to 18 hours, 37° C.; for MIC: Staphylococcus aureus, read-out: Minimum Inhibitory Concentration for Bacterial Growth, Sm
# Method: as §2
# [4] = test system: methicillin-resistant S. aureus strain 1094; assay: Inhibition of bacterial growth (MIC), MRSA; format: cell-based, Staphylococcus aureus; conditions: 16 to 18 hours, 37° C.; for MIC: Staphylococcus aureus, MRSA, read-out: Minimum Inhibitory Concentration for Bacterial Growth, MRSA
# Method: as §2
# [5] = test system: Enterococcus faecalis strain 29212; assay: Inhibition of bacterial growth (MIC), Efcl; format: cell-based; conditions: 16 to 18 hours, 37° C.; for MIC: read-out: Minimum Inhibitory Concentration for Bacterial Growth, Efcl
# Method: as §2
# [6] = test system: E. faecium clinical isolate; assay: Inhibition of bacterial growth (MIC), Efcm; format: cell-based; conditions: 16 to 18 hours, 37° C.; for MIC: Enterococcus faecium, read-out: Minimum Inhibitory Concentration for Bacterial Growth, Efcm
# Method: as §2
# [7] = test system: vancomycin-resistant Enterococcus strain B42762; assay: Inhibition of bacterial growth (MIC), VRE; format: cell-based; conditions: 16 to 18 hours, 37° C.; for MIC: VRE, read-out: Minimum Inhibitory Concentration for Bacterial Growth, VRE
# Method: as §2
# [8] = test system: Escherichia coli strain J53; assay: Inhibition of bacterial growth (MIC), Ec; format: cell-based; conditions: 16 to 18 hours, 37° C.; for MIC: read-out: Minimum Inhibitory Concentration for Bacterial Growth, Ec
# Method: as §2
# B. subtilis pol IIIE [9] = biological target: T2, B. subtilis pol IIIE; assay: DNA polymerase assay, B. subtilis pol IIIE; format: biochemical
# [10] = B. subtilis Pol IIIC IC50, −dATP, in the absence of dATP
# [11] = B. subtilis Pol IIIC IC50, −dCTP, in the absence of dCTP
# [12] = B. subtilis Pol IIIC IC50, −dGTP, in the absence of dGTP
# [13] = in the presence of all four dNTP substrates
# [14] = 80 μg/mL (190-260 μM) final concentration, all four dNTPs
# [15] = B. subtilis Pol IIIE IC50, −dATP, in the absence of dATP
# [16] = B. subtilis Pol IIIE IC50, −dCTP, in the absence of dCTP
# [17] = B. subtilis Pol IIIE IC50, −dGTP, in the absence of dGTP
# T1 sequence (P13267 whole entry): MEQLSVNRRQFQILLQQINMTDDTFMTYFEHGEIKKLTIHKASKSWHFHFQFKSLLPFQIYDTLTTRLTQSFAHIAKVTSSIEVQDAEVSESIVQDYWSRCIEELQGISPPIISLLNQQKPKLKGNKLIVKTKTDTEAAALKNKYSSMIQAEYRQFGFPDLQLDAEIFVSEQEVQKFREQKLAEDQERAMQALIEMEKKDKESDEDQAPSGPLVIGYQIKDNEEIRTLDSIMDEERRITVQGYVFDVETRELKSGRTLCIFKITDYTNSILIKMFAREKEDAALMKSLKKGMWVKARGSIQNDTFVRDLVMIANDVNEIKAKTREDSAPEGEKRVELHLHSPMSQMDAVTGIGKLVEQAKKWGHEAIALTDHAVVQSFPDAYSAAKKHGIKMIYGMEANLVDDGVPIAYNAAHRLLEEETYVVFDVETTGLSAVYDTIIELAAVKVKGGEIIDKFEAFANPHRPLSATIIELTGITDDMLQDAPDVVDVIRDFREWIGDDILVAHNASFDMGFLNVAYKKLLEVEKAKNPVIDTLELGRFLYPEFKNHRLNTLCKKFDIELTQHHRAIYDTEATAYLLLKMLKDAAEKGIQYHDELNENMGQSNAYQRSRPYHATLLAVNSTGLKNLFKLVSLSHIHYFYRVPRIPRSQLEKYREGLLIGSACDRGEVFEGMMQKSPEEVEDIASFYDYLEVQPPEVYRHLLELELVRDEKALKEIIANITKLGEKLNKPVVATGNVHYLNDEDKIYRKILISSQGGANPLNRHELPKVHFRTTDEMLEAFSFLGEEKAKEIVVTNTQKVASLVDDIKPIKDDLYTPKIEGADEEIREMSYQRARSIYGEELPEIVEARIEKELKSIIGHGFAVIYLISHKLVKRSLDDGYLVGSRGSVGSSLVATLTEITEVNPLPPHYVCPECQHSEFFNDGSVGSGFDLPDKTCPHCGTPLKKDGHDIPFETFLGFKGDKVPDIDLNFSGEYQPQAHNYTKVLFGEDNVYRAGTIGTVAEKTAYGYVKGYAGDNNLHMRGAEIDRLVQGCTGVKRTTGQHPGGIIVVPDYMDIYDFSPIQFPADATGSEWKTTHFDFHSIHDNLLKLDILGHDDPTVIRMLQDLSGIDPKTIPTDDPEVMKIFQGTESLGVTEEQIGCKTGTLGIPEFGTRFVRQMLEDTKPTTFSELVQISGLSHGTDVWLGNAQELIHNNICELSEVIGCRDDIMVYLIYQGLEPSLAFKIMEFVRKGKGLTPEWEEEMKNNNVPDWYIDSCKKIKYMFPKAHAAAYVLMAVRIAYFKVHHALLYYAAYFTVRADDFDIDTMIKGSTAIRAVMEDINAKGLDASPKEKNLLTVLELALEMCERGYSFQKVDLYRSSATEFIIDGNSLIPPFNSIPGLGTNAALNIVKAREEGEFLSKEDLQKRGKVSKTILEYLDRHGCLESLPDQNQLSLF
# T2 sequence (O34623 whole entry): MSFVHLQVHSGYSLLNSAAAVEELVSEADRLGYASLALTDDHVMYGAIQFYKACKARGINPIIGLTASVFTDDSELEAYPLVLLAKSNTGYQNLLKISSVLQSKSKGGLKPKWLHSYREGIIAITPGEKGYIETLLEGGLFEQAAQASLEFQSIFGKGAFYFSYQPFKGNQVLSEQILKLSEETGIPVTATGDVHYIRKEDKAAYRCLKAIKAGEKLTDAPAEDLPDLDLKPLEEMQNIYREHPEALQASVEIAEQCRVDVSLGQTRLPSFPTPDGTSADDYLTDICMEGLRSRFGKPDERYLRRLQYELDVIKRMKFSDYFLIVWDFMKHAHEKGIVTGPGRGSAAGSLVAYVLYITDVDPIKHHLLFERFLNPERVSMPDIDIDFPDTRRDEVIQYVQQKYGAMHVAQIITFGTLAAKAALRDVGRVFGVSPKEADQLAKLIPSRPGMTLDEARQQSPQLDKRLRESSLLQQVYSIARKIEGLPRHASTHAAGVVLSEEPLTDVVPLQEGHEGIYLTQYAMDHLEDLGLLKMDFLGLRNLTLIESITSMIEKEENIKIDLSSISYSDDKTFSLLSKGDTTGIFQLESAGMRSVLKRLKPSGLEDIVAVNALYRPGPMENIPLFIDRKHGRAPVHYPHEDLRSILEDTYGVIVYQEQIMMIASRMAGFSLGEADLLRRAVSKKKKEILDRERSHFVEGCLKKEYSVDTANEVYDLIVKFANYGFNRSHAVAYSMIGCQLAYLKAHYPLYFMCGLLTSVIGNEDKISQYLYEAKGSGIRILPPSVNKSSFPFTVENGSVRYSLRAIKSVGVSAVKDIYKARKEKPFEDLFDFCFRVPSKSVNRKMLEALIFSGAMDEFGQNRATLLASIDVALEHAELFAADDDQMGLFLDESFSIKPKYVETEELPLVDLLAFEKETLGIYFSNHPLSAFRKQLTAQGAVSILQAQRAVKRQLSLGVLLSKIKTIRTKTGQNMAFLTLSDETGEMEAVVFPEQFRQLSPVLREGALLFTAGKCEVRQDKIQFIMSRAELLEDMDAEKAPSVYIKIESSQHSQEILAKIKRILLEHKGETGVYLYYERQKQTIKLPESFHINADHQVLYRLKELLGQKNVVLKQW
# T3 sequence (P10443 whole entry): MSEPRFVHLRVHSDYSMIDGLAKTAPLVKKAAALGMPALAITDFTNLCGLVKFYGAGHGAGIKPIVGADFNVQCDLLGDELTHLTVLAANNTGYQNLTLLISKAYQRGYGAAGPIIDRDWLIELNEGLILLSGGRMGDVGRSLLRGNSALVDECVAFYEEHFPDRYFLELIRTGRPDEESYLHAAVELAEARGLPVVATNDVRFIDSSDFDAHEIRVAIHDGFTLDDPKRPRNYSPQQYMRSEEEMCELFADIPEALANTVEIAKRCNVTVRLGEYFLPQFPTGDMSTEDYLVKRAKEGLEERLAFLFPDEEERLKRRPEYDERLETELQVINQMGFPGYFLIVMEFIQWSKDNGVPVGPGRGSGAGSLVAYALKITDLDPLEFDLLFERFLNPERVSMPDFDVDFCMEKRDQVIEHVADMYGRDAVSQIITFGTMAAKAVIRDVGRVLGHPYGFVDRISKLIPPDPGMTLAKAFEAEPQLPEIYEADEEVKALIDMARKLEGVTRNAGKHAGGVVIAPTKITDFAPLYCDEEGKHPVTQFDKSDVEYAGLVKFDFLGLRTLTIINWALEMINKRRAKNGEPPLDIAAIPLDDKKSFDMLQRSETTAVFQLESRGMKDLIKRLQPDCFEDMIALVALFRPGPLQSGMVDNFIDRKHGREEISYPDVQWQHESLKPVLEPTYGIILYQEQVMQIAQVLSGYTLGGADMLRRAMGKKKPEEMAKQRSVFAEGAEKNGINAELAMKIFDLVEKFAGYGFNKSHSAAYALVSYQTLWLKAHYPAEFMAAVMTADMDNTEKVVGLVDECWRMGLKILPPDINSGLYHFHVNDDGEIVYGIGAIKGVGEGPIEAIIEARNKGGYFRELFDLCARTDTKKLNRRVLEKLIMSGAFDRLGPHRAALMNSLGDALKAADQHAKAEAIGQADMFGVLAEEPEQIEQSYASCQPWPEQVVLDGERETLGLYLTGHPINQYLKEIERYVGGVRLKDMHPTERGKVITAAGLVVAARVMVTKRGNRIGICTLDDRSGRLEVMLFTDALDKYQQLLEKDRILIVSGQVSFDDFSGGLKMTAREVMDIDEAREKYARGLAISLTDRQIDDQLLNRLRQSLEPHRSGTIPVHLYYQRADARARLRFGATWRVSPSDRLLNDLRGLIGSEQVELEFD
Structure (SMILES),IC50 (B. subtilis pol IIIC; [10]) [µM],IC50 (B. subtilis pol IIIC; [11]) [µM],IC50 (B. subtilis pol IIIC; [12]) [µM],"B. subtilis Pol IIIC IC50, 4 dNTPs (B. subtilis pol IIIC; [13])",inhibition at 80 µg/mL (B. subtilis pol IIIE [1]; [14]) [%],IC50 (B. subtilis pol IIIE [1]) [µM],MIC [2] [mg/L],MIC [3] [mg/L],MIC (S. aureus Smith strain) [mg/L],MIC [4] [mg/L],MIC [5] [mg/L],MIC [6] [mg/L],MIC [7] [mg/L],MIC [8] [mg/L],IC50 (B. subtilis pol IIIE [9]; [15]) [µM],IC50 (B. subtilis pol IIIE [9]; [16]) [µM],IC50 (B. subtilis pol IIIE [9]; [17]) [µM],inhibition at 80 µg/mL (B. subtilis pol IIIC) [%],Percent Enzymatic Inhibition E. coli pol IIIE (E. coli pol IIIE),further results
COc1cccc(-c2cc(C(=O)NN=Cc3ccc(OC)c(OC)c3)[nH]n2)c1 [Compound 2],99,287,406,Inactive,> 20,604,20,10,20,20,40,60,40,> 80,57,104,78,–,–,Percent Enzymatic Inhibition B. subtilis pol IIIC (B. subtilis pol IIIC): Inactive; inhibition at 80 µg/mL (E. coli pol IIIE): 1.7%
CCOc1cc(C=NNC(=O)c2cc(-c3cccc(OC)c3)n[nH]2)ccc1O [Compound 3],141,563,301,Inactive,> 20,–,> 80,20,40,40,80,80,40,> 80,124,222,311,5.3,Inactive,"B. subtilis Pol IIIE IC50, 4 dNTPs (B. subtilis pol IIIE [1]): Inactive"
O=C(NN=Cc1ccc(O)cc1O)c1cc(-c2ccccc2)n[nH]1 [Compound 4],81,228,98,Inactive,> 20,699,40,30,60,40,> 80,30,> 80,> 80,278,347,183,15.8,Inactive,–
COc1cc(C=NNC(=O)c2cc(-c3ccccc3)n[nH]2)ccc1O [Compound 5],41,265,89,Inactive,> 20,205,60,20,40,40,40,80,40,> 80,213,383,111,4.8,–,inhibition at 80 µg/mL (E. coli pol IIIE): 2%
COc1ccc(C=NNC(=O)c2cc(-c3ccc(Cl)cc3)n[nH]2)cc1OC [Compound 15],–,–,–,–,–,–,–,–,–,–,–,–,–,–,–,–,–,–,Inactive,"Percent Enzymatic Inhibition B. subtilis pol IIIC (B. subtilis pol IIIC): Inactive; Percent Enzymatic Inhibition B. subtilis pol IIIE (B. subtilis pol IIIE [1]; [14]): 13.7%; Minimum Inhibitory Concentration for Bacterial Growth, Bs [2]: >80 µg/mL; Minimum Inhibitory Concentration for Bacterial Growth, Sa ([3]; 16 to 18 hours): 8 µg/mL; Minimum Inhibitory Concentration for Bacterial Growth, Sm (S. aureus Smith strain): >80 µg/mL; Minimum Inhibitory Concentration for Bacterial Growth, MRSA [4]: >80 µg/mL; Minimum Inhibitory Concentration for Bacterial Growth, Efcl [5]: >80 µg/mL; Minimum Inhibitory Concentration for Bacterial Growth, Efcm [6]: 40 µg/mL; Minimum Inhibitory Concentration for Bacterial Growth, VRE [7]: >80 µg/mL; Minimum Inhibitory Concentration for Bacterial Growth, Ec [8]: >80 µg/mL"
COc1ccc(-c2cc(C(=O)NN=Cc3ccc(O)cc3)[nH]n2)cc1 [Compound 16],89,96,60,Inactive,> 20,–,> 80,> 80,> 80,> 80,> 80,> 80,80,> 80,117,156,318,9.9,Inactive,"B. subtilis Pol IIIE IC50, 4 dNTPs (B. subtilis pol IIIE [1]): Inactive"
CCOc1ccc(-c2cc(C(=O)NN=Cc3ccc(O)c(OC)c3)[nH]n2)cc1 [Compound 19],9,3.3,5.1,–,10.1,> 841,2.5,80,> 80,5,> 80,> 80,10,> 80,> 841,> 841,> 841,> 20,Inactive,"IC50 (B. subtilis pol IIIC; B. subtilis Pol IIIC IC50, 4 dNTPs, in the presence of all four dNTP substrates): 23 µM"
